The conditions of this series: Liquid, Closed cell (Static) method.

These results are taken from the NIST ThermoML archive (doi:10.1016/j.fluid.2006.10.023).

Values joined by “and” are separate entries in the source; they are usually repeats but may differ in a detail not shown here. Identical values can stand only once. ± gives the expanded uncertainty stated by the source.

By vapor or sublimation pressure is commonly meant the pressure of vapour in equilibrium with the condensed phase.

On to `C1CC1` [cyclopropane], for which the “vapor or sublimation pressure” value by setting is: (253.15 K) 171.3 ± 2.1 kPa and 171.2 ± 2.1 kPa; (273.15 K) 344.1 ± 2.3 kPa and 344.7 ± 2.3 kPa; (293.15 K) 631.7 ± 2.8 kPa and 632.2 ± 2.8 kPa.

With `FC(F)C(F)(F)F` [pentafluoroethane], the “vapor or sublimation pressure” value by setting is: (253.15 K) 337.3 ± 2.3 kPa; (273.15 K) 672.1 ± 2.9 kPa; (293.15 K) 1204.7 ± 4.1 kPa.

As for `FCC(F)(F)F` [1,1,1,2-tetrafluoroethane], the “vapor or sublimation pressure” value worked out at 133.5 ± 2.1 kPa (253.15 K), 291.8 ± 2.2 kPa (273.15 K) and 572.1 ± 2.6 kPa (293.15 K).
